Assay results as given in patent US20150219624A1, “METHODS FOR IDENTIFYING ANTI-CANCER COMPOUNDS” (MEMORIAL SLOAN KETTERING CANCER CENTER, priority 2013, published 2015).

Assays:
[1] = system: BE(2)C; assay: Silvestrol in neuroblastoma cell lines in vitro: BE(2)C; type: cell-based; conditions: Homo sapiens; BE(2)C cells, N-MYC
Procedure: (§1) The effect of silvestrol on several neuroblastoma cell lines was evaluated.

[2] = system: human T-ALL lines; assay: mRNA levels of target genes (real-time quantitative PCR); type: cell-based; conditions: 25 nM
Procedure: Real-Time Quantitative PCR. Total RNA was extracted using AllPrep DNA/RNA/Protein Mini Kit (Qiagen 80004). Normal CD3+ T-cell RNA mixed from healthy donors was purchased from Miltenyi Biotec (130-093-164). cDNA was made using SuperScript III First-Strand (Invitrogen 18080-400). Analysis was performed by ΔΔCt. Applied Biosystems Taqman GeneExpression Assays: human Myc Hs00153408_m1, hsa-miR-19b RT and TM 396, Rnu6b RT and TM 001093, and mouse Myc Mm00487804_m1.
Given the complexity of the RF data analysis, it was important to directly confirm loss of expression for at least some of these proteins. Briefly, immunoblots on JURKAT and KOPT-K1 cells treated with silvestrol (25 nM) and loaded with equal amounts of total protein confirmed dramatic loss of MYC, NOTCH1, BCL2, and CCND3 proteins (FIG. 6A). The effect on MYC was especially striking, it was dose dependent (FIG. 6B), lasted for 48 h, and was also achieved in xenografts in vivo (Figure S6A-B). […] As expected, ACTIN, TUBULIN, and GAPDH were not affected (FIG. 6A). […] The small and significant increase in MYC mRNA levels might be consistent with prior reports of a MYC auto-regulatory mechanism (Penn et al., 1990a; Penn et al., 1990b) (FIG. 6C).
FIG. 6 depicts validation of selected silvestrol targets. A) Immunoblots of lysates from human T-ALL lines treated with silvestrol (25 nM) and probed as indicated. […]

[3] = system: KOPTK1 cells; assay: Polysome profiling; type: cell-based, human; conditions: 25 nM, 45 minutes
Procedure: Polysome profiling. KOPTK1 cells were treated with silvestrol or DMSO for 45 minutes, followed by cycloheximide treatment for 10 minutes. Cell pellet was lysed in polysome lysis buffer (300 mM NaCl, 15 mM Tris-HCl (pH 7.5), 15 mM MgCl2, 1% TritonX-100, 0.1 mg/ml Cycloheximide, 1 mg/ml Heparin). Polysome fractions were isolated using 4 ml 10-50% sucrose density gradients (300 mM NaCl, 100 mM MgCl2, 15 mM Tris-HCl (pH 7.5), 1 mg/ml Cycloheximide, 10 mg/ml Heparin). Gradients were centrifuged in an SW40Ti rotor at 35,000 rpm for 2 hrs. Fractions of 100 ul were collected manually from the top, and optical density (OD) at […] was measured.
FIG. 10 depicts ribosome profiling quality control data and effects on translation. A and B) Read counts by length of mapped sequence before and after filtering rRNA, linker reads, non-coding RNAs, short mapped sequences (“noisy” reads; see text and method for details). C and D) Read length frequency histograms and mapping analysis of ribosome footprint data after quality control filtering for vehicle treated cells (C) or silvestrol treated cells (D). […] F) Histogram of all genes' ribosome footprint intensity (measured as unique read number per million per gene, RPM) for silvestrol and vehicle treated cells indicating silvestrol affected mRNAs were broadly distributed (see text for details). […]

[4] = system: IMR32; assay: Silvestrol in neuroblastoma cell lines in vitro: IMR32; type: cell-based; conditions: Homo sapiens, IMR-32; IMR32 cells, N_MYC
Procedure: as §1

[5] = system: neuroblastoma cell lines SKNAS, CLBGA, IMR32 and N206; assay: Silvestrol IC50 in neuroblastoma cell lines SKNAS, CLBGA, IMR32 and N206; type: cell-based

## COC(=O)[C@H]1[C@@H](O)[C@@]2(O)c3c(OC)cc(O[C@@H]4O[C@@H]([C@H](O)CO)CO[C@H]4OC)cc3O[C@@]2(c2ccc(OC)cc2)[C@@H]1c1ccccc1 [silvestrol]
[1]
  IC50: 47.8 nM
[2]
  corresponding mRNA expression: no decrease
[3]
  polyribosome bound RNA (fractions 30-40): loss of polyribosome bound RNA
[4]
  IC50: 2.86 nM
[5]
  IC50: 2 to 20 nM
